From ChEMBL document CHEMBL1914426, “Phospshoinositide 3-kinase (PI3K)/mammalian target of rapamycin (mTOR) dual inhibitors: discovery and structure-activity relationships of a series of quinoline and quinoxaline derivatives” (J Med Chem, 2011)
Each block holds one compound with its values, some of them ahead of it.

Tests used:
[1] = target: T1, Phosphatidylinositol 4,5-bisphosphate 3-kinase catalytic subunit alpha isoform (Homo sapiens, UniProt P42336)
[2] = target: T1, Phosphatidylinositol 4,5-bisphosphate 3-kinase catalytic subunit alpha isoform; remark: listed apart in the source
Mus musculus [3] = experiment: Inhibition of PI3K-induced Akt phosphorylation at Ser 473 in HGF-stimulated nude CD1 mouse at 0.3 mg/kg, po measured after 4 hrs by quantitative electrochemiluminescence immunoassay; format: functional; settings: CD1, 4 h
in vitro [4] = settings: human, liver microsomes
Description: Clearance in human liver microsomes assessed as compound remaining at 1 uM after 30 mins

[5] = Oral bioavailability in Sprague-Dawley rat at 1 mg/kg; format: ADME, organism-based; settings: in vivo
[6] = Plasma concentration in nude CD1 mouse at 0.3 mg/kg, po measured after 4 hrs; format: ADME, organism-based; parameters: dose 0.3 mg/kg, route oral
[7] = target: Phosphatidylinositol 3-kinase catalytic subunit type 3 (Homo sapiens, UniProt Q8NEB9)
Description: Inhibition of human VPS34 assessed as ADP formation using ATP by fluorescence-based immunoassay

[8] = Plasma concentration in nude CD1 mouse at 3 mg/kg, po measured after 4 hrs; format: ADME, organism-based; parameters: dose 3 mg/kg, route oral
Mus musculus [9] = experiment: Inhibition of PI3K-induced Akt phosphorylation at Ser 473 in HGF-stimulated nude CD1 mouse at 3 mg/kg, po measured after 4 hrs by quantitative electrochemiluminescence immunoassay; format: functional; settings: CD1, 4 h
Mus musculus [10] = experiment: Inhibition of PI3K-induced Akt phosphorylation at Ser 473 in HGF-stimulated nude CD1 mouse at 1 mg/kg, po measured after 4 hrs by quantitative electrochemiluminescence immunoassay; format: functional; settings: CD1, 4 h
[11] = AUC in Sprague-Dawley rat at 1 mg/kg, po; format: ADME, organism-based; parameters: dose 1 mg/kg, route oral; settings: plasma
[12] = target: T2, Phosphatidylinositol 4,5-bisphosphate 3-kinase catalytic subunit delta isoform (Homo sapiens, UniProt O00329)
T2 sequence (O00329 whole entry): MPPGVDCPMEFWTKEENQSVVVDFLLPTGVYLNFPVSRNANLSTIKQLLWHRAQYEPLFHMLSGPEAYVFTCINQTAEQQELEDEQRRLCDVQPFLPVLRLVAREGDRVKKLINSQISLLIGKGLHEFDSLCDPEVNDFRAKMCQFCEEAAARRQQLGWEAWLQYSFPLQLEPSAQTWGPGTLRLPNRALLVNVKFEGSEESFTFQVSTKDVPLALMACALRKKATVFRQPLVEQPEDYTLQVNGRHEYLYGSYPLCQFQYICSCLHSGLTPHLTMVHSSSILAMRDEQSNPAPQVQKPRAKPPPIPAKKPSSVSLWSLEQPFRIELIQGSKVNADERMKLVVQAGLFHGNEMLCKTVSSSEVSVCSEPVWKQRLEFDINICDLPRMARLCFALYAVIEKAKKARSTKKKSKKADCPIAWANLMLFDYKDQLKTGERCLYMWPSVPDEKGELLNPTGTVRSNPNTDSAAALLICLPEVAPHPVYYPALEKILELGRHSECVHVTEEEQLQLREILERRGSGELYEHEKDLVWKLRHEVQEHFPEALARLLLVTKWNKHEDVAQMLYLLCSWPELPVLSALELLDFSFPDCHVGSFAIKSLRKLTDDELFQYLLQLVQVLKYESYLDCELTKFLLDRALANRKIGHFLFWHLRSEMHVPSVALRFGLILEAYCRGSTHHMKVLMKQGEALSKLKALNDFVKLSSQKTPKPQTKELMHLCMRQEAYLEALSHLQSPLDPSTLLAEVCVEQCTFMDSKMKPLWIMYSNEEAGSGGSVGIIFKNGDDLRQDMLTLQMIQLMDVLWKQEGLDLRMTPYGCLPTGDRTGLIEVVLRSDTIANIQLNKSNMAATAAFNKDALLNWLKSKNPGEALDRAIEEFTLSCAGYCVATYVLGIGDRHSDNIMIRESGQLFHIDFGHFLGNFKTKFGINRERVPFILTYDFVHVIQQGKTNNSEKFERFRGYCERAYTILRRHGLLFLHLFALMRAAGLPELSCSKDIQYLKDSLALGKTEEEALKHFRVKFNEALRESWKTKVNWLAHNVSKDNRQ

[13] = target: DNA-dependent protein kinase catalytic subunit (Homo sapiens, UniProt P78527)
Description: Inhibition of DNA-PK using fluorescein-p53 peptide as substrate after 1 hr by TR-FRET enzyme assay

in vitro [14] = settings: rat, liver microsomes
Description: Clearance in rat liver microsomes assessed as compound remaining at 1 uM after 30 mins

in vivo [15] = settings: Sprague-Dawley, rat, iv, 1 mg/kg
Description: (§1) Clearance in Sprague-Dawley rat at 1 mg/kg, iv

[16] = Plasma concentration in nude CD1 mouse at 1 mg/kg, po measured after 4 hrs; format: ADME, organism-based; parameters: dose 1 mg/kg, route oral
Rattus norvegicus [17] = species on record: Rattus norvegicus; settings: in vivo, iv, 1 mg/kg
Description: Hepatic blood flow in Sprague-Dawley rat 1 mg/kg, iv

[18] = target: Serine/threonine-protein kinase mTOR (Homo sapiens, UniProt P42345)
Description: Inhibition of mTOR using GFP-tagged 4E-BP1 after 1 hr by spectrophotometric analysis

[19] = target: Phosphatidylinositol 4,5-bisphosphate 3-kinase catalytic subunit gamma isoform (Homo sapiens, UniProt P48736); parameters: species or system Sf9
in vivo [20] = settings: Sprague-Dawley, rat, iv, 1 mg/kg; remark: listed apart in the source
Description: (§2) Volume of distribution at steady-state in Sprague-Dawley rat at 1 mg/kg, iv

in vivo [21] = settings: Sprague-Dawley, rat, iv, 1 mg/kg; remark: listed apart in the source
Description: (§3) Mean residence time in Sprague-Dawley rat at 1 mg/kg, iv

[22] = target: Phosphatidylinositol 4,5-bisphosphate 3-kinase catalytic subunit beta isoform (Homo sapiens, UniProt P42338)
in vivo [23] = settings: nude CD1, mouse, plasma, po, 3 mg/kg
Description: Plasma concentration in nude CD1 mouse at 3 mg/kg, po measured after 3 hrs

in vivo [24] = settings: nude CD1, mouse, plasma, po, 0.3 mg/kg
Description: Plasma concentration in nude CD1 mouse at 0.3 mg/kg, po measured after 3 hrs

Mus musculus [25] = species on record: Mus musculus; experiment: animal or person; settings: CD1, po, 3 h, read-out: INH
Mus musculus [26] = species on record: Mus musculus; experiment: animal or person; settings: CD1, po, 3 h, read-out: INH; remark: listed apart in the source
Mus musculus [27] = species on record: Mus musculus; experiment: animal or person; settings: CD1, po, 3 h, read-out: INH; remark: listed apart in the source
in vivo [28] = settings: nude CD1, mouse, plasma, po, 1 mg/kg
Description: Plasma concentration in nude CD1 mouse at 1 mg/kg, po measured after 3 hrs

Rattus norvegicus [29] = species on record: Rattus norvegicus; settings: in vivo, iv, 1 mg/kg; remark: listed apart in the source
Description: as §3

Rattus norvegicus [30] = species on record: Rattus norvegicus; settings: in vivo, iv, 1 mg/kg; remark: listed apart in the source
Description: as §1

Rattus norvegicus [31] = species on record: Rattus norvegicus; settings: in vivo, iv, 1 mg/kg; remark: listed apart in the source
Description: as §2

Phosphatidylinositol 3-kinase catalytic subunit type 3, sequence (Q8NEB9 whole entry): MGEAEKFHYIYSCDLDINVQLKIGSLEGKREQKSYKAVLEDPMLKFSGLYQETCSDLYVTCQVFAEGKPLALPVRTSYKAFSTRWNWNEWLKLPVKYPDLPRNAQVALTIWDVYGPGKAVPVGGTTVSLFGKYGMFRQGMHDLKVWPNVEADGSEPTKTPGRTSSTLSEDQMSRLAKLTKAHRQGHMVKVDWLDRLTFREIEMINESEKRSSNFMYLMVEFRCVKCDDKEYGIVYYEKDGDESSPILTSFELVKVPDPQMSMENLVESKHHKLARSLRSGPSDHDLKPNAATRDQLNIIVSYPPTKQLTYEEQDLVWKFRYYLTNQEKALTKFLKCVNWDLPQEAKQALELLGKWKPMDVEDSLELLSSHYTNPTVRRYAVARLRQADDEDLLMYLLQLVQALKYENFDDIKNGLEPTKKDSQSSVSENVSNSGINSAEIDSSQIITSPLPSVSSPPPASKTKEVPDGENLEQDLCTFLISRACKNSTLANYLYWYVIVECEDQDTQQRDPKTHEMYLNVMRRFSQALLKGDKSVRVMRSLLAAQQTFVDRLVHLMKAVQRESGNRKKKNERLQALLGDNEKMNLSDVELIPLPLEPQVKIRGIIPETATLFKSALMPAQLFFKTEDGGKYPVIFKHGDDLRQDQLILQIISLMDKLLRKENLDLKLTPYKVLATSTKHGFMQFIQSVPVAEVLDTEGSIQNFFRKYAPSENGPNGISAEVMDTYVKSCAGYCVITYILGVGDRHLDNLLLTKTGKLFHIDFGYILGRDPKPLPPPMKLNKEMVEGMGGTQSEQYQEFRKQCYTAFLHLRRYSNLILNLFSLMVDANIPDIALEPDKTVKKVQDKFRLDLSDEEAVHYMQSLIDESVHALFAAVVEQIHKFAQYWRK
T1 sequence (P42336 whole entry, canonical isoform): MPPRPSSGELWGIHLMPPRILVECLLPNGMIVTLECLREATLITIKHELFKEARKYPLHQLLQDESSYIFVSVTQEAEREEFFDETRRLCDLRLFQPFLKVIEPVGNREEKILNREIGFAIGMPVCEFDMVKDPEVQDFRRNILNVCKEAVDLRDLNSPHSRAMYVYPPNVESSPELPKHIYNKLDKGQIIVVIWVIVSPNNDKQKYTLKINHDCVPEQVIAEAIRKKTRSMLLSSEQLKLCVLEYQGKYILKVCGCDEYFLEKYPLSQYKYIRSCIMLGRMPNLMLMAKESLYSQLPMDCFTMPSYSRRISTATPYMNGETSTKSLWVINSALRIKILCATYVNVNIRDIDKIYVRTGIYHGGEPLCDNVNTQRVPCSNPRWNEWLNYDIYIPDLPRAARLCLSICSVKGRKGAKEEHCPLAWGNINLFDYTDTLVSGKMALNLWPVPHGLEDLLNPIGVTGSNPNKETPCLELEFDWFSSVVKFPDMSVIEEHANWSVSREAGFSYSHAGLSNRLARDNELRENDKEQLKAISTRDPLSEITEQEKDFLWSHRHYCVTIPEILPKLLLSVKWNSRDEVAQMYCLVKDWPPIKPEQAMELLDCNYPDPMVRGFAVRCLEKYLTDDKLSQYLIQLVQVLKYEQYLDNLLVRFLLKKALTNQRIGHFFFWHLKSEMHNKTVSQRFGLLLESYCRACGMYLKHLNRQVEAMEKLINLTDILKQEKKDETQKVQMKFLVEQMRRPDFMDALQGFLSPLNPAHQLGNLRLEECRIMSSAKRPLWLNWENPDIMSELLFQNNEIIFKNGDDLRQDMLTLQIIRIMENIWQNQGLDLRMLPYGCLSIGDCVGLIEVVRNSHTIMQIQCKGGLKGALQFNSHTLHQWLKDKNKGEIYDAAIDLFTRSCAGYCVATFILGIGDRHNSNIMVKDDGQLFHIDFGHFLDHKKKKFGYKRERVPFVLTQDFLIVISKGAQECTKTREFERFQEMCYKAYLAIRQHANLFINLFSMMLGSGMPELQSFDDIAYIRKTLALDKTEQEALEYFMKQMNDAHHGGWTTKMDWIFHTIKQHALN
Phosphatidylinositol 4,5-bisphosphate 3-kinase catalytic subunit gamma isoform, sequence (P48736 whole entry, canonical isoform): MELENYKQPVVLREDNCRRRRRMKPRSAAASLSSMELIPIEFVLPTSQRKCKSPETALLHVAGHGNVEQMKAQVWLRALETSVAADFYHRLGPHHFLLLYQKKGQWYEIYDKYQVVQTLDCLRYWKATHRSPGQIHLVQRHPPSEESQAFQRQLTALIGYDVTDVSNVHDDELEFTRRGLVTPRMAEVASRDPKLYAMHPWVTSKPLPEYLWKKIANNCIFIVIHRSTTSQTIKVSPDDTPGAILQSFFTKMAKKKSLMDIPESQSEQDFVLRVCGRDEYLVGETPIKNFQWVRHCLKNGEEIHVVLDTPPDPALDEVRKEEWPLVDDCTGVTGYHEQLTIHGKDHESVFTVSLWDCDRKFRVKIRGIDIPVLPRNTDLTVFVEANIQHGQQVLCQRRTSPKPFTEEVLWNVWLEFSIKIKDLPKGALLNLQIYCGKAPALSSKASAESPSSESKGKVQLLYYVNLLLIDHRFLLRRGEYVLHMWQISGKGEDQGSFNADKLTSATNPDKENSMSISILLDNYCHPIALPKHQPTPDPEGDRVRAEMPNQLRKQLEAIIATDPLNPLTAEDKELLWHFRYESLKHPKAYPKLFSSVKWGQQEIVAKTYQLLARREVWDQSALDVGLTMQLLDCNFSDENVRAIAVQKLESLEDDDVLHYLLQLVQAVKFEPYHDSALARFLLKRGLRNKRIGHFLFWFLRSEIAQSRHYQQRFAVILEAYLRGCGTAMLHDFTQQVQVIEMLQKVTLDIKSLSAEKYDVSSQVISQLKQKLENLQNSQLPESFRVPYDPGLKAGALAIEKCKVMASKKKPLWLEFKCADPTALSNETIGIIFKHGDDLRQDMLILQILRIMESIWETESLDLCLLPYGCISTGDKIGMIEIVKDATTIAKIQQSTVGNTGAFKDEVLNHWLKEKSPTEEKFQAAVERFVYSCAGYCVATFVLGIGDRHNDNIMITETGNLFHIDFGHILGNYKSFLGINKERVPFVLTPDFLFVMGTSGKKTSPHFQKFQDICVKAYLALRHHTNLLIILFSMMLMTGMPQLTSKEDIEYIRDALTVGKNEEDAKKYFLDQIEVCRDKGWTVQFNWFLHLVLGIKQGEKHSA
Phosphatidylinositol 4,5-bisphosphate 3-kinase catalytic subunit beta isoform, sequence (P42338 whole entry, canonical isoform): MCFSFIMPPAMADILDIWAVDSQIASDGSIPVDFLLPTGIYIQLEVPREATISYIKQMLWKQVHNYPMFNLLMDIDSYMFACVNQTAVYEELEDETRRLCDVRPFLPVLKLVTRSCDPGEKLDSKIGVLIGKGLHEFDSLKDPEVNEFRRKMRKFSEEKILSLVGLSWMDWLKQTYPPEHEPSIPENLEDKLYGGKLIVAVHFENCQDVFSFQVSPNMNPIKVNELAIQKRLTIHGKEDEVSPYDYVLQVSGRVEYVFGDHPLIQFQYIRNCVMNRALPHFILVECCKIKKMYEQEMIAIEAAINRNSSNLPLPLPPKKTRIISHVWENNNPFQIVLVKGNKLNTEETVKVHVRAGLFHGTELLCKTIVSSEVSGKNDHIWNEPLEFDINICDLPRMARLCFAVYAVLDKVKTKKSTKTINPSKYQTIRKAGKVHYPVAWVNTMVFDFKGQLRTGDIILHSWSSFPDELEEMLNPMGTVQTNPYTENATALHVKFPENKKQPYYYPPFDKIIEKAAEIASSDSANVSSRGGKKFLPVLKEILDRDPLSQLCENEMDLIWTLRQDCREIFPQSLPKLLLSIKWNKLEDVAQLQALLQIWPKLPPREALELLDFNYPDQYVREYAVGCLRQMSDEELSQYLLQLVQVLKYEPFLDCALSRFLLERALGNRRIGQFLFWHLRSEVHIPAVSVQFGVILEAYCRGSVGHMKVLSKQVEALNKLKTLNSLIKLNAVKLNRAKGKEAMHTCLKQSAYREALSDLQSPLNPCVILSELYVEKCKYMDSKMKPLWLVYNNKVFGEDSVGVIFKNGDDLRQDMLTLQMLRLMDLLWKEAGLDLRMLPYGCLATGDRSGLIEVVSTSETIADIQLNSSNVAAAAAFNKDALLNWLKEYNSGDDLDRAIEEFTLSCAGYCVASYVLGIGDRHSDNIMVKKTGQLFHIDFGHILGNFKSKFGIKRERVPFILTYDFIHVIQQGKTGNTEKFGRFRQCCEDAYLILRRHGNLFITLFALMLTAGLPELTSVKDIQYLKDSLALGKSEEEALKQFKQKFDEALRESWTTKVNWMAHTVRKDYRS

microsomal CLint at 0.5 h, 1 µM (in vitro [4]): < 14 µL/min/mg
bioavailability [5]: 88%
concentration at 4 h [6]: 448 ng/mL
IC50 [7]: 5 nM
concentration at 4 h [8]: 4470 ng/mL
AUC [11]: 29600 ng·h/mL
IC50 [12]: 4.4 nM
IC50 [13]: 3.4 nM
microsomal CLint at 0.5 h, 1 µM (in vitro [14]): 16 µL/min/mg
clearance (in vivo [15]): 0.333 mL/min/kg
concentration at 4 h [16]: 1730 ng/mL
QH (Rattus norvegicus [17]): 0.6%
IC50 [18]: 5 nM
IC50 [19]: 2.4 nM
Vd (in vivo [20]): 0.19 L/kg
MRT (in vivo [21]): 9 h
Compound: O=S(=O)(Nc1cc(-c2ccc3ncc(N4CCOCC4)nc3c2)cnc1Cl)c1ccc(F)cc1
inhibition in vivo at 0.3 mg/kg (Mus musculus [3]): 55%
inhibition in vivo at 3 mg/kg (Mus musculus [9]): 97%
inhibition in vivo at 1 mg/kg (Mus musculus [10]): 86%

IC50 [1]: 128 nM
Ki [2]: 0.9 nM
Compound: O=S(=O)(Nc1cc(-c2ccc3ncc(N4CCCCC4)nc3c2)cnc1Cl)c1ccc(F)cc1

IC50 [22]: 9.8 nM
IC50 [12]: 6 nM
IC50 [19]: 16 nM
Compound: O=S(=O)(Nc1cc(-c2ccc3ncc(NCCN4CCOCC4)nc3c2)cnc1Cl)c1ccc(F)cc1

microsomal CLint at 0.5 h, 1 µM (in vitro [4]): 31 µL/min/mg
bioavailability [5]: 72%
IC50 [1]: 17 nM
concentration at 4 h [6]: 155 ng/mL
concentration at 4 h [8]: 1790 ng/mL
Ki [2]: 0.8 nM
AUC [11]: 10800 ng·h/mL
IC50 [12]: 5.6 nM
microsomal CLint at 0.5 h, 1 µM (in vitro [14]): 32 µL/min/mg
clearance (in vivo [15]): 1.33 mL/min/kg
concentration at 4 h [16]: 417 ng/mL
QH (Rattus norvegicus [17]): 0.6%
IC50 [18]: 37 nM
IC50 [19]: 13 nM
Vd (in vivo [20]): 0.4 L/kg
MRT (in vivo [21]): 5.4 h
Compound: CC(C)N1CCN(c2cnc3ccc(-c4cnc(Cl)c(NS(=O)(=O)c5ccc(F)cc5)c4)cc3n2)CC1
inhibition in vivo at 0.3 mg/kg (Mus musculus [3]): 50%
inhibition in vivo at 3 mg/kg (Mus musculus [9]): 95%
inhibition in vivo at 1 mg/kg (Mus musculus [10]): 86%

IC50 [1]: 189 nM
Ki [2]: 0.6 nM
Compound: O=S(=O)(Nc1cc(-c2ccc3ncc(N4CCC(F)(F)CC4)nc3c2)cnc1Cl)c1ccc(F)cc1

IC50 [1]: 2710 nM
Ki [2]: 3.3 nM
Compound: O=S(=O)(Nc1cc(-c2ccc3ncc(NCC4CCCNC4)nc3c2)cnc1Cl)c1ccc(F)cc1 (configuration not stated)

IC50 [1]: 1920 nM
Ki [2]: 38 nM
Compound: O=S(=O)(Nc1cc(-c2ccc3nnccc3c2)cnc1Cl)c1ccc(F)cc1

microsomal CLint at 0.5 h, 1 µM (in vitro [4]): 25 µL/min/mg
MRT (Rattus norvegicus [29]): 2.1 h
bioavailability [5]: 16%
CL (Rattus norvegicus [30]): 9.83 mL/min/kg
AUC [11]: 271 ng·h/mL
microsomal CLint at 0.5 h, 1 µM (in vitro [14]): < 14 µL/min/mg
QH (Rattus norvegicus [17]): 0.6%
Vdss (Rattus norvegicus [31]): 0.19 L/kg
Compound: O=S(=O)(Nc1cc(-c2ccc3ncc(NCCN4CCCCC4)nc3c2)cnc1Cl)c1ccc(F)cc1

IC50 [1]: 150 nM
Ki [2]: 0.9 nM
Compound: O=S(=O)(Nc1cc(-c2ccc3nccc(N4CCC(O)CC4)c3c2)cnc1Cl)c1ccc(F)cc1

The next lines start with the compound.

Compound: CN(C)c1ccc(-c2ccnc3ccc(-c4cnc(Cl)c(NS(=O)(=O)c5ccc(F)cc5)c4)cc23)cc1
IC50 [1]: 61 nM
Ki [2]: 0.7 nM

Compound: COCCNc1ccnc2ccc(-c3cnc(Cl)c(NS(=O)(=O)c4ccc(F)cc4)c3)cc12
IC50 [1]: 1020 nM
Ki [2]: 69 nM

Compound: O=S(=O)(Nc1cc(-c2ccc3nccc(-c4cccnc4)c3c2)cnc1Cl)c1ccc(F)cc1
microsomal CLint at 0.5 h, 1 µM (in vitro [4]): < 14 µL/min/mg
IC50 [22]: 10 nM
bioavailability [5]: 73%
concentration at 3 h (in vivo [23]): 2330 ng/mL
IC50 [7]: 2.9 nM
concentration at 3 h (in vivo [24]): 210 ng/mL
inhibition in vivo at 1 mg/kg (Mus musculus [25]): 97%
AUC [11]: 5630 ng·h/mL
IC50 [12]: 5.9 nM
inhibition in vivo at 3 mg/kg (Mus musculus [26]): 99%
microsomal CLint at 0.5 h, 1 µM (in vitro [14]): 33 µL/min/mg
clearance (in vivo [15]): 2.17 mL/min/kg
QH (Rattus norvegicus [17]): 0.6%
IC50 [19]: 7.7 nM
inhibition in vivo at 0.3 mg/kg (Mus musculus [27]): 70%
Vd (in vivo [20]): 0.81 L/kg
concentration at 3 h (in vivo [28]): 899 ng/mL
MRT (in vivo [21]): 6.3 h

Compound: O=S(=O)(Nc1cc(-c2cc3cccnc3cn2)cnc1Cl)c1ccc(F)cc1
IC50 [1]: > 10000 nM
Ki [2]: 200 nM

Compound: O=S(=O)(Nc1cc(-c2ccc3nccc(-c4ccccc4)c3c2)cnc1Cl)c1ccc(F)cc1
IC50 [1]: 127 nM
Ki [2]: 1.3 nM

Compound: O=S(=O)(Nc1cc(-c2ccc3ncc(N4C[C@H]5CC[C@H](CC5)C4)nc3c2)cnc1Cl)c1ccc(F)cc1
IC50 [1]: 247 nM
Ki [2]: 1 nM

Compound: O=S(=O)(Nc1cc(-c2ccc3ncccc3c2)cnc1Cl)c1ccc(F)cc1
IC50 [1]: 377 nM
Ki [2]: 2.1 nM

Compound: O=S(=O)(Nc1cc(-c2ccc3nccc(N4CCN(Cc5ccncc5)CC4)c3c2)cnc1Cl)c1ccc(F)cc1
microsomal CLint at 0.5 h, 1 µM (in vitro [4]): 247 µL/min/mg
IC50 [22]: 15 nM
IC50 [1]: 18 nM
IC50 [2]: 4.6 nM
Ki [2]: 0.9 nM
IC50 [12]: 6 nM
microsomal CLint at 0.5 h, 1 µM (in vitro [14]): > 399 µL/min/mg
QH (Rattus norvegicus [17]): 0.6%
IC50 [19]: 6.5 nM

Compound: O=S(=O)(Nc1cc(-c2ccc3nccc(-c4ccncc4)c3c2)cnc1Cl)c1ccc(F)cc1
microsomal CLint at 0.5 h, 1 µM (in vitro [4]): < 14 µL/min/mg
IC50 [22]: 15 nM
bioavailability [5]: 70%
concentration at 3 h (in vivo [23]): 2470 ng/mL
IC50 [7]: 5.3 nM
concentration at 3 h (in vivo [24]): 326 ng/mL
inhibition in vivo at 1 mg/kg (Mus musculus [25]): 98%
AUC [11]: 14700 ng·h/mL
IC50 [12]: 6 nM
inhibition in vivo at 3 mg/kg (Mus musculus [26]): > 99%
microsomal CLint at 0.5 h, 1 µM (in vitro [14]): 20 µL/min/mg
clearance (in vivo [15]): 0.667 mL/min/kg
QH (Rattus norvegicus [17]): 0.6%
IC50 [18]: 0.41 nM
IC50 [19]: 13 nM
inhibition in vivo at 0.3 mg/kg (Mus musculus [27]): 89%
Vd (in vivo [20]): 0.52 L/kg
concentration at 3 h (in vivo [28]): 950 ng/mL
MRT (in vivo [21]): 15 h

Compound: CN(C)c1ccnc2ccc(-c3cnc(Cl)c(NS(=O)(=O)c4ccc(F)cc4)c3)cc12
IC50 [1]: 223 nM
Ki [2]: 5.7 nM

Compound: O=S(=O)(Nc1cc(-c2cnc3ncccc3c2)cnc1Cl)c1ccc(F)cc1
Ki [2]: 856 nM

Compound: O=S(=O)(Nc1cc(-c2ccc3nccc(N4CCN(Cc5ccccc5)CC4)c3c2)cnc1Cl)c1ccc(F)cc1
IC50 [1]: 136 nM
Ki [2]: 1 nM
